From US11207325B2, “Triazolopyrimidine compounds and uses thereof” (Novartis AG, priority 2014, dated 2021)

Tested on: H3K27 methylation in G401 cell
Experiment: ELISA (H3K27 methylation) assay
Format: cell-based
Conditions: Homo sapiens, G-401; ELISA Qualified assay (H3K27 methylation); read-out: (c) IC50 (μM), ELISA Qualified
Source text: ELISA (H3K27 Methylation) Assay

OC1CN(c2ccc(-c3cnc(NCc4cccc5c4CCO5)n4cnnc34)cn2)C1 [Example 126, 1-(5-(5-(((2,3-dihydrobenzofuran-4-yl)methyl)amino)-[1,2,4]triazolo[4,3-c]pyrimidin-8-yl)pyridin-2-yl)azetidin-3-ol] was tested, and the IC50 was 0.656 µM.
For Cc1cc(S(C)(=O)=O)ncc1-c1cnc(NCc2c(F)ccc3c2CCO3)n2cnnc12 [Example 127, N-((5-fluoro-2,3-dihydrobenzofuran-4-yl)methyl)-8-(4-methyl-6-(methylsulfonyl)pyridin-3-yl)-[1,2,4]triazolo[4,3-c]pyrimidin-5-amine], the IC50 was 0.028 µM.
In the case of Cc1cc(S(C)(=O)=O)ccc1-c1cnc(NCc2c(F)ccc3c2CCO3)n2cnnc12 [Example 128, N-((5-fluoro-2,3-dihydrobenzofuran-4-yl)methyl)-8-(2-methyl-4-(methylsulfonyl)phenyl)-[1,2,4]triazolo[4,3-c]pyrimidin-5-amine], the IC50 is reported as 0.0037 µM.
In the case of O=C(c1ccc(-c2cnc(NCc3c(F)ccc4c3CCO4)n3cnnc23)cn1)N1CCCC1 [Example 129, (5-(5-(((5-fluoro-2,3-dihydrobenzofuran-4-yl)methyl)amino)-[1,2,4]triazolo[4,3-c]pyrimidin-8-yl)pyridin-2-yl)(pyrrolidin-l-yl)methanone], the IC50 is reported as 0.0019 µM.
Work on Cc1cc(C(=O)N2CCCC2)ncc1-c1cnc(NCc2c(F)ccc3c2CCO3)n2cnnc12 [Example 130, (5-(5-(((5-fluoro-2,3-dihydrobenzofuran-4-yl)methyl)amino)-[1,2,4]triazolo[4,3-c]pyrimidin-8-yl)-4-methylpyridin-2-yl)(pyrrolidin-l-yl)methanone] yielded an IC50 of 0.0013 µM.
Molecule Cc1cc(C(=O)N(C)C)ncc1-c1cnc(NCc2c(F)ccc3c2CCO3)n2cnnc12 [Example 131, 5-(5-(((5-fluoro-2,3-dihydrobenzofuran-4-yl)methyl)amino)-[1,2,4]triazolo[4,3-c]pyrimidin-8-yl)-N,N,4-trimethylpicolinamide] has an IC50 of 0.0033 µM.
With Cc1nn(C)c(C)c1-c1cnc(NCc2c(F)ccc3c2CCO3)n2cnnc12 [Example 132, N-((5-fluoro-2,3-dihydrobenzofuran-4-yl)methyl)-8-(1,3,5-trimethyl-1H-pyrazol-4-yl)-[1,2,4]triazolo[4,3-c]pyrimidin-5-amine] the IC50 was 0.0077 µM.
In the case of O=C1CN(Cc2ccc(-c3cnc(NCc4cccc5c4CCO5)n4cnnc34)cn2)CCN1 [Example 133, 4-((5-(5-(((2,3-dihydrobenzofuran-4-yl)methyl)amino)-[1,2,4]triazolo[4,3-c]pyrimidin-8-yl)pyridin-2-yl)methyl)piperazin-2-one], the IC50 is reported as 0.142 µM.
For O=CN1CCN(c2ccc(-c3cnc(NCc4cccc5c4CCO5)n4cnnc34)cn2)CC1 [Example 134, 4-(5-(5-(((2,3-dihydrobenzofuran-4-yl)methyl)amino)-[1,2,4]triazolo[4,3-c]pyrimidin-8-yl)pyridin-2-yl)piperazine-1-carbaldehyde], the IC50 was 0.165 µM.
Work on CN(C)C(=O)CCc1ccc(-c2cnc(NCc3cccc4c3CCO4)n3cnnc23)cn1 [Example 135, 3-(5-(5-(((2,3-dihydrobenzofuran-4-yl)methyl)amino)-[1,2,4]triazolo[4,3-c]pyrimidin-8-yl)pyridin-2-yl)-N,N-dimethylpropanamide] yielded an IC50 of 0.321 µM.
In the case of Fc1ccc2c(c1CNc1ncc(-c3cnccc3C(F)(F)F)c3nncn13)CCO2 [Example 136, N-((5-fluoro-2,3-dihydrobenzofuran-4-yl)methyl)-8-(4-(trifluoromethyl)pyridin-3-yl)-[1,2,4]triazolo[4,3-c]pyrimidin-5-amine], the IC50 is reported as 0.0804 µM.
Molecule COCc1cc(-c2cnc(NCc3cccc4c3CCO4)n3cnnc23)cnc1C [Example 137, N-((2,3-dihydrobenzofuran-4-yl)methyl)-8-(5-(methoxymethyl)-6-methylpyridin-3-yl)-[1,2,4]triazolo[4,3-c]pyrimidin-5-amine] has an IC50 of 0.226 µM.
For COc1cc(Cl)c(-c2cnc(NCc3c(F)ccc4c3CCO4)n3cnnc23)cn1 [Example 138, 8-(4-chloro-6-methoxypyridin-3-yl)-N-((5-fluoro-2,3-dihydrobenzofuran-4-yl)methyl)-[1,2,4]triazolo[4,3-c]pyrimidin-5-amine], the IC50 was 0.0072 µM.
Cc1nc(S(C)(=O)=O)ccc1-c1cnc(NCc2c(F)ccc3c2CCO3)n2cnnc12 [Example 139, N-((5-fluoro-2,3-dihydrobenzofuran-4-yl)methyl)-8-(2-methyl-6-(methylsulfonyl)pyridin-3-yl)-[1,2,4]triazolo[4,3-c]pyrimidin-5-amine] gave an IC50 of 0.0016 µM.
In the case of CN(C)C(=O)c1ccc(-c2cnc(NCc3c(F)ccc4c3CCO4)n3cnnc23)cn1 [Example 140, 5-(5-(((5-fluoro-2,3-dihydrobenzofuran-4-yl)methyl)amino)-[1,2,4]triazolo[4,3-c]pyrimidin-8-yl)-N,N-dimethylpicolinamide], the IC50 is reported as 0.0263 µM.
With COc1ncccc1-c1cnc(NCc2c(F)ccc3c2CCO3)n2cnnc12 [Example 141, N-((5-fluoro-2,3-dihydrobenzofuran-4-yl)methyl)-8-(2-methoxypyridin-3-yl)-[1,2,4]triazolo[4,3-c]pyrimidin-5-amine] the IC50 was 0.0351 µM.
COc1ccc(-c2cnc(NCc3c(F)ccc4c3CCO4)n3cnnc23)cn1 [Example 142, N-((5-fluoro-2,3-dihydrobenzofuran-4-yl)methyl)-8-(6-methoxypyridin-3-yl)-[1,2,4]triazolo[4,3-c]pyrimidin-5-amine] gave an IC50 of 0.0043 µM.
In the case of CCn1nccc1-c1cnc(NCc2c(F)ccc3c2CCO3)n2cnnc12 [Example 143, 8-(1-ethyl-1H-pyrazol-5-yl)-N-((5-fluoro-2,3-dihydrobenzofuran-4-yl)methyl)-[1,2,4]triazolo[4,3-c]pyrimidin-5-amine], the IC50 is reported as 0.0106 µM.
CC(C)n1nccc1-c1cnc(NCc2c(F)ccc3c2CCO3)n2cnnc12 [Example 144, N-((5-fluoro-2,3-dihydrobenzofuran-4-yl)methyl)-8-(1-isopropyl-1H-pyrazol-5-yl)-[1,2,4]triazolo[4,3-c]pyrimidin-5-amine] was tested, and the IC50 was 0.0683 µM.
Work on COc1cc(-c2cnc(NCc3c(F)ccc4c3CCO4)n3cnnc23)ccn1 [Example 145, N-((5-fluoro-2,3-dihydrobenzofuran-4-yl)methyl)-8-(2-methoxypyridin-4-yl)-[1,2,4]triazolo[4,3-c]pyrimidin-5-amine] yielded an IC50 of 0.0052 µM.
Molecule Fc1ccc2c(c1CNc1ncc(-c3ccc(Cl)cc3Cl)c3nncn13)CCO2 [Example 146, 8-(2,4-dichlorophenyl)-N-((5-fluoro-2,3-dihydrobenzofuran-4-yl)methyl)-[1,2,4]triazolo[4,3-c]pyrimidin-5-amine] has an IC50 of 0.0744 µM.
Cn1cc(-c2cnc(NCc3c(F)ccc4c3CCO4)n3cnnc23)cn1 [Example 147, N-((5-fluoro-2,3-dihydrobenzofuran-4-yl)methyl)-8-(1-methyl-1H-pyrazol-4-yl)-[1,2,4]triazolo[4,3-c]pyrimidin-5-amine] showed an IC50 of 0.0113 µM.
With CC(C)n1cc(-c2cnc(NCc3c(F)ccc4c3CCO4)n3cnnc23)c(C(F)(F)F)n1 [Example 148, N-((5-fluoro-2,3-dihydrobenzofuran-4-yl)methyl)-8-(1-isopropyl-3-(trifluoromethyl)-1H-pyrazol-4-yl)-[1,2,4]triazolo[4,3-c]pyrimidin-5-amine] the IC50 was 0.0252 µM.
c1cc(CNc2ncc(-c3cnn(C4CC4)c3)c3nncn23)c2c(c1)OCC2 [Example 149, 8-(1-cyclopropyl-1H-pyrazol-4-yl)-N-((2,3-dihydrobenzofuran-4-yl)methyl)-[1,2,4]triazolo[4,3-c]pyrimidin-5-amine] gave an IC50 of 0.22 µM.
In the case of Fc1ccc2c(c1CNc1ncc(-c3cnn(C4CC4)c3)c3nncn13)CCO2 [Example 150, 8-(1-cyclopropyl-1H-pyrazol-4-yl)-N-((5-fluoro-2,3-dihydrobenzofuran-4-yl)methyl)-[1,2,4]triazolo[4,3-c]pyrimidin-5-amine], the IC50 is reported as 0.0148 µM.
With Cc1nn(C(C)C)c(C)c1-c1cnc(NCc2c(F)ccc3c2CCO3)n2cnnc12 [Example 151, N-((5-fluoro-2,3-dihydrobenzofuran-4-yl)methyl)-8-(1-isopropyl-3,5-dimethyl-1H-pyrazol-4-yl)-[1,2,4]triazolo[4,3-c]pyrimidin-5-amine] the IC50 was 0.0086 µM.
Cn1nccc1-c1cnc(NCc2cccc3c2CCO3)n2cnnc12 [Example 152, N-((2,3-dihydrobenzofuran-4-yl)methyl)-8-(1-methyl-1H-pyrazol-5-yl)-[1,2,4]triazolo[4,3-c]pyrimidin-5-amine] was tested, and the IC50 was 0.008 µM.
Cc1nn(C(C)C)c(C)c1-c1cnc(NCc2cccc3c2CCO3)n2cnnc12 [Example 153, N-((2,3-dihydrobenzofuran-4-yl)methyl)-8-(1-isopropyl-3,5-dimethyl-1H-pyrazol-4-yl)-[1,2,4]triazolo[4,3-c]pyrimidin-5-amine] was tested, and the IC50 was 0.0073 µM.
For FC(F)c1ccc(-c2cnc(NCc3cccc4c3CCO4)n3cnnc23)cn1 [Example 154, 8-(6-(difluoromethyl)pyridin-3-yl)-N-((2,3-dihydrobenzofuran-4-yl)methyl)-[1,2,4]triazolo[4,3-c]pyrimidin-5-amine], the IC50 was 0.0968 µM.
With COc1ccc(-c2cnc(NCc3c(F)ccc4c3CCO4)n3cnnc23)c(C)n1 [Example 155, N-((5-fluoro-2,3-dihydrobenzofuran-4-yl)methyl)-8-(6-methoxy-2-methylpyridin-3-yl)-[1,2,4]triazolo[4,3-c]pyrimidin-5-amine] the IC50 was 0.078 µM.
Cc1nc(N)ccc1-c1cnc(NCc2c(F)ccc3c2CCO3)n2cnnc12 [Example 156, 8-(6-amino-2-methylpyridin-3-yl)-N-((5-fluoro-2,3-dihydrobenzofuran-4-yl)methyl)-[1,2,4]triazolo[4,3-c]pyrimidin-5-amine] was tested, and the IC50 was 0.0261 µM.
For Fc1ccc(-c2cnc(NCc3c(F)ccc4c3CCO4)n3cnnc23)c(Cl)c1 [Example 157, 8-(2-chloro-4-fluorophenyl)-N-((5-fluoro-2,3-dihydrobenzofuran-4-yl)methyl)-[1,2,4]triazolo[4,3-c]pyrimidin-5-amine], the IC50 was 0.445 µM.
In the case of Cc1nn(CCO)c(C)c1-c1cnc(NCc2c(F)ccc3c2CCO3)n2cnnc12 [Example 158, 2-(4-(5-(((5-fluoro-2,3-dihydrobenzofuran-4-yl)methyl)amino)-[1,2,4]triazolo[4,3-c]pyrimidin-8-yl)-3,5-dimethyl-1H-pyrazol-1-yl)ethanol], the IC50 is reported as 0.0067 µM.
